# Literature values as cited in patent US20050004224A1, “Treatment of Alzheimer's disease with the R(-) isomer of a 2-arylpropionic acid non-steroidal anti-inflammatory drug alone or in combination with a cyclooxygenase-2 selective inhibitor” (Pharmacia Corporation, priority 2003, published 2005).
# Legend:
# [1] = test system: patients with osteoarthritis; details: Singer et al. 2000
# A-beta 1-42 peptide = details: Weggen et al. 2001
# murine cells = details: Ogawa et al. 2000
# AD models = details: chronic ibuprofen; some AD models; Lim et al. 2001
# [2] = Lambat et al. 2000
# neuronal cells = details: Blasko et al. 2001
# [3] = Lambat et al. 2000; remark: listed apart in the source
# [4] = Asanuma et al. 2001
smiles,measurement,setting,value
"CC(C)Cc1ccc([C@H](C)C(=O)O)cc1 (single isomer, unassigned) [S(+) isomer of ibuprofen]",effective NSAID for patients with osteoarthritis,[1],effective
CSc1ccc(/C=C2/C(C)=C(CC(=O)O)c3cc(F)ccc32)cc1 [sulindac sulfide],production of the amyloidogenic A-beta 1-42 peptide,A-beta 1-42 peptide,reduced
CC(=O)Oc1ccccc1C(=O)O [aspirin],beta-amyloid protein and interferon-gamma-induced NO production,murine cells,did not produce such an effect
"CC(C)Cc1ccc(C(C)C(=O)O)cc1 (stereo not drawn) [ibuprofen, α-methyl-4-[isobutyl]phenylacetic acid]",inflammation and plaque-related pathology,AD models,suppress
same,production of the amyloidogenic A-beta 1-42 peptide,A-beta 1-42 peptide,reduced
same,quinolinic acid-induced lipid peroxidation,[2],reducing
same,cytokine-induced amyloid Beta production,neuronal cells,reduced
same,cyanide-induced speroxide production,[3],reducing
same,beta-amyloid protein and interferon-gamma-induced NO production,murine cells,reduced
COc1ccc2c(c1)c(CC(=O)O)c(C)n2C(=O)c1ccc(Cl)cc1 [indomethacin],production of the amyloidogenic A-beta 1-42 peptide,A-beta 1-42 peptide,reduced
same,beta-amyloid protein and interferon-gamma-induced NO production,murine cells,reduced
CC(C(=O)O)c1cccc(C(=O)c2ccccc2)c1 (stereo not drawn) [ketoprofen],nitric oxide-scavenging ability,[4],have such activity
